# Measurements published in patent US6949536B2, “Sulfonylbenzene compounds as anti-inflammatory/analgesic agents” (Pfizer, Inc., priority 1998, dated 2005).
# Counter-ions that a name gives are not always drawn.
row,melting point [°C],SMILES
1,112.5 to 115,"CS(=O)(=O)c1ccc(-n2cc(C(F)(F)F)nc2-c2ccc(-c3cscn3)cc2)cc1F [Example 153, 1-[3-Fluoro-4-(methylsulfonyl)phenyl]-2-[4-(4-thiazolyl)phenyl]-4-trifluoromethyl-1H-imidazole]"
2,129 to 130,"CS(=O)(=O)c1ccc(-n2nc(C(F)(F)F)cc2-c2ccc(-c3ccco3)cc2)cc1F [Example 60, 1-[3-Fluoro-4-(methylsulfonyl)phenyl]-5-[4-(2-furyl)phenyl]-3-(trifluoromethyl)-1H-pyrazole]"
3,170 to 172,"Cc1scnc1-c1ccc(-c2cc(C(F)(F)F)nn2-c2ccc(S(C)(=O)=O)c(F)c2)cc1 [Example 104, 4-{4-[1-[3-Fluoro-4-(methylsulfonyl)phenyl]-3-(trifluoromethyl)-1H-pyrazol-5-yl]phenyl}-5-methyl-1,3-thiazole]"
4,137 to 138,"CS(=O)(=O)c1ccc(-n2nc(C(F)(F)F)cc2-c2ccc(-c3cc4ccccc4o3)cc2)cc1 [Example 4, 1-[4-(Methylsulfonyl)phenyl]-5-[4-(benzo[b]furan-2-yl)phenyl]-3-trifluoromethyl-1H-pyrazole]"
5,78 to 80,"Cc1cc(-c2cc(C(F)(F)F)nn2-c2ccc(S(N)(=O)=O)c(F)c2)ccc1-c1ccco1 [Example 139, 2-Fluoro-4-[5-[4-(2-furyl)-3-methylphenyl]-3-(trifluoromethyl)-1H-pyrazol-1-yl]benzenesulfonamide]"
6,204.3,"Cc1cc(-c2ccnn2-c2ccc(S(N)(=O)=O)c(F)c2C(F)F)ccc1-c1cscn1 (as salt: hydrochloride) [Example 195, 3-(Difluoromethyl)-2-fluoro-4-[5-[3-methyl-4-(1,3-thiazol-4-yl)phenyl]-1H-pyrazol-1-yl]benzenesulfonamide]"
7,74 to 76,"CS(=O)(=O)c1ccc(-n2nc(C(F)(F)F)cc2-c2ccc(-c3ccoc3)cc2)cc1F [Example 85, 1-[3-Fluoro-4-(methylsulfonyl)phenyl]-5-[4-(3-furyl)phenyl]-3-(trifluoromethyl)-1H-pyrazole]"
8,220 to 222,"CS(=O)(=O)c1ccc(C2=C(c3ccc(-c4ccsc4)cc3)C(=O)OC2)cc1 [Example 32, 3-[4-(3-Thienyl)phenyl]4-[4-(methylsulfonyl)phenyl]-2-(5H)-furanone]"
9,167 to 168,"CN(C)C(=O)c1cc(-c2ccc(-c3ccco3)cc2)n(-c2ccc(S(C)(=O)=O)c(F)c2)n1 (as salt: hydrochloride) [Example 133, N,N-Dimethyl-1-[3-fluoro-4-(methylsulfonyl)phenyl]-5-[4-(2-furyl)phenyl]-1H-pyrazole-3-carboxamide]"
10,197 to 198,"Cc1cc(-c2nc(C(F)(F)F)cn2-c2ccc(S(C)(=O)=O)c(F)c2)ccc1-c1cscn1 [Example 178, 1-[3-Fluoro-4-(methylsulfonyl)phenyl]-2-[3-methyl-4-(4-thiazolyl)phenyl]-4-trifluoromethyl-1H-imidazole]"
11,72 to 74,"CS(=O)(=O)c1ccc(-n2nc(C(F)(F)F)cc2-c2ccc(-c3ccsc3)cc2)cc1F [Example 87, 1-[3-Fluoro-4-(methylsulfonyl)phenyl]-5-[4-(3-thienyl)phenyl]-3-(trifluoromethyl)-1H-pyrazole]"
12,112 to 114,"Cc1cc(-c2cc(C(F)(F)F)nn2-c2ccc(S(C)(=O)=O)c(F)c2)ccc1-c1cscn1 [Example 106, 4-{4-[1-[3-Fluoro-4-(methylsulfonyl)phenyl]-3-(trifluoromethyl)-1H-pyrazol-5-yl]-2-methylphenyl}-1,3-thiazole]"
13,159,"Cc1onc(-c2ccc(S(C)(=O)=O)cc2)c1-c1ccc(-c2cscn2)cc1 [Example 189, 5-Methyl-3-[4-(methylsulfonyl)phenyl]-4-[4-(1,3-thiazol-4-yl)phenyl]isoxazole]"
14,114 to 116,"Cc1cc(-c2noc(C)c2-c2ccc(S(N)(=O)=O)c(F)c2)ccc1-c1cscn1 [Example 188, 2-Fluoro-4-[5-methyl-3-[3-methyl-4-(1,3-thiazol-4-yl)phenyl]-4-isoxazolyl]benzenesulfonamide]"
15,183 to 185,"Cc1nc(-c2ccc(-c3cccs3)cc2)c(-c2ccc(S(C)(=O)=O)cc2)o1 [Example 50, 2-Methyl-5-[4-(methylsulfonyl)phenyl]-4-[4-(2-thienyl)phenyl]oxazole]"
16,159 to 160,"CS(=O)(=O)c1ccc(-n2nc(C(F)(F)F)cc2-c2ccc(-c3ccco3)cc2)cc1C(F)(F)F (as salt: hydrochloride) [Example 135, 5-[4-(2-Furyl)phenyl]-1-[4-(methylsulfonyl)-3-(trifluoromethyl)phenyl]-3-trifluoromethyl-1H-pyrazole]"
17,200 to 202,"Cc1ccc(-c2ccc(S(C)(=O)=O)cc2)n1-c1ccc(-c2ccoc2)cc1 [Example 38, 5-[4-(Methylsulfonyl)phenyl]-1-[4-(3-furyl)phenyl]-2-methyl-1H-pyrrole]"
18,192.6,"NS(=O)(=O)c1ccc(-n2nc(C(F)(F)F)cc2-c2ccc(-c3ccco3)cc2)cc1Cl (as salt: hydrochloride) [Example 144, 2-Chloro-4-[5-[4-(2-furyl)phenyl]-3-(trifluoromethyl)-1H-pyrazol-1-yl]benzenesulfonamide]"

row,melting point [°C],SMILES
1,171 to 173,"COc1cc(-c2cc(C(F)(F)F)nn2-c2ccc(S(C)(=O)=O)cc2)ccc1-c1cocn1 (as salt: hydrochloride) [Example 111, 4-{2-Methoxy-4-[1-[4-(methylsulfonyl)phenyl]-3-(trifluoromethyl)-1H-pyrazol-5-yl]phenyl}-1,3-oxazole]"
2,193 to 194,"Cc1cc(-c2ccc(-c3ccco3)cc2)n(-c2ccc(S(C)(=O)=O)cc2)c1 [Example 59, 2-[4-(2-Furyl)phenyl]-4-methyl-1-[4-(methylsulfonyl)phenyl]-1H-pyrrole]"
3,180.3,"Cc1cc(C2=C(c3ccc(S(C)(=O)=O)cc3)C(C)(C)OC2=O)ccc1-c1cscn1 [Example 184, 5,5-Dimethyl-3-[3-methyl-4-(1,3-thiazol-4-yl)phenyl]-4-[4-(methylsulfonyl)phenyl]-2(5H)-furanone]"
4,108 to 110,"CS(=O)(=O)c1ccc(-n2nc(C(F)(F)F)cc2-c2ccc(-c3cscn3)c(Cl)c2)cc1F [Example 109, 4-{2-Chloro-4-[1-[3-fluoro-4-(methylsulfonyl)phenyl]-3-(trifluoromethyl)-1H-pyrazol-5-yl]phenyl}-1,3-thiazole]"
5,190.3,"NS(=O)(=O)c1ccc(-n2nc(C(F)(F)F)cc2-c2ccc(-c3ccco3)cc2)c(Cl)c1 (as salt: hydrochloride) [Example 140, 3-Chloro-4-[5-[4-(2-furyl)phenyl]-3-(trifluoromethyl)-1H-pyrazol-1-yl]benzenesulfonamide]"
6,225.2,"CC(=O)Nc1cnn(-c2ccc(S(C)(=O)=O)c(F)c2)c1-c1ccc(-c2cscn2)cc1 [Example 164, N-[1-[3-Fluoro-4-(methylsulfonyl)phenyl]-5-[4-(1,3-thiazol-4-yl)phenyl]-1H-pyrazol-4-yl]acetamide]"
7,183 to 184,"CS(=O)(=O)c1ccc(-n2nc(C(F)(F)F)cc2-c2ccc(-n3ccnc3)cc2)cc1 [Example 66, 5-[4-(1-Imidazolyl)phenyl]-1-[4-(methylsulfonyl)phenyl]-3-trifluoromethyl-1H-pyrazol]"
8,221 to 222,"CS(=O)(=O)c1ccc(-n2nc(C(=O)N3CCOCC3)cc2-c2ccc(-c3ccco3)cc2)cc1F [Example 130, 1-[3-Fluoro-4-(methylsulfonyl)phenyl]-5-[4-(2-furyl)phenyl]-3-(4-morpholinecarbonyl)-1H-pyrazole]"
9,155 to 156,"CS(=O)(=O)c1ccc(-n2nccc2-c2ccc(-c3ccco3)cc2)cc1F [Example 162, 1-[3-Fluoro-4-(methylsulfonyl)phenyl]-5-[4-(2-furyl)phenyl]-1H-pyrazole]"
10,171.5 to 173,"CS(=O)(=O)c1ccc(-n2nc(C(=O)O)cc2-c2ccc(-c3ccco3)cc2)cc1F [Example 128, 1-[3-Fluoro-4-(methylsulfonyl)phenyl]-5-[4-(2-furyl)phenyl]-1H-pyrazole-3-carboxylic Acid]"
11,99.5,"Cc1cc(-c2noc(C)c2-c2ccc(S(C)(=O)=O)c(F)c2)ccc1-c1cscn1 [Example 170, 4-[3-Fluoro-4-(methylsulfonyl)phenyl]-5-methyl-3-[3-methyl-4-(1,3-thiazol-4-yl)phenyl]isoxazole]"
12,153 to 157,"CS(=O)(=O)c1ccc(-n2ncc(C#N)c2-c2ccc(-c3ccco3)cc2)cc1F [Example 163, 4-Cyano-1-[3-fluoro-4-(methylsulfonyl)phenyl]-5-[4-(2-furyl)phenyl]-1H-pyrazole]"
13,169 to 170,"CS(=O)(=O)c1ccc(-n2nc(C(F)(F)F)cc2-c2ccc(-c3cncs3)cc2)cc1 [Example 24, 1-[4-(Methylsulfonyl)phenyl]-5-[4-(5-thiazolyl)phenyl]-3-trifluoromethyl-1H-pyrazole]"
14,75 to 76,"CS(=O)(=O)c1ccc(-n2nc(C(F)(F)F)cc2-c2ccc(-c3cccs3)cc2)cc1F [Example 86, 1-[3-Fluoro-4-(methylsulfonyl)phenyl]-5-[4-(2-thienyl)phenyl]-3-(trifluoromethyl)-1H-pyrazole]"
15,196 to 198,"NS(=O)(=O)c1ccc(-n2nc(C(F)(F)F)cc2-c2ccc(-c3cscn3)c(F)c2)cc1F (as salt: hydrochloride) [Example 114, 2-Fluoro-4-[5-[3-fluoro-4-(1,3-thiazol-4-yl)phenyl]-3-(trifluoromethyl)-1H-pyrazol-1-yl]benzenesulfonamide]"
16,125 to 127,"Cc1cc(-c2cc(C(F)(F)F)nn2-c2ccc(S(N)(=O)=O)c(F)c2)ccc1-c1cscn1 (as salt: hydrochloride) [Example 113, 2-Fluoro-4-[5-[3-methyl-4-(1,3-thiazol-4-yl)phenyl]-3-(trifluoromethyl)-1H-pyrazol-1-yl]benzenesulfonamide]"
17,175 to 177,"Cc1cc(-c2ccco2)ccc1-c1cc(C(F)(F)F)nn1-c1ccc(S(C)(=O)=O)cc1 (as salt: hydrochloride) [Example 78, 1-[4-(Methylsulfonyl)phenyl]-5-[4-(2-furyl)-2-methylphenyl]-3-(trifluoromethyl)-1H-pyrazole]"
